Reference: article PMC2898210 (ACS medicinal chemistry letters, 2010)

Target: polo-box domain (PBD) of human polo-like kinase 1 (Plk1) (Homo sapiens, UniProt P53350)
Experiment: ELISA-based PBD competition assay against p-T78 peptide of PBIP1
Type: binding

Sequence of polo-box domain (PBD) of human polo-like kinase 1 (Plk1) (P53350 367-603 limits assumed): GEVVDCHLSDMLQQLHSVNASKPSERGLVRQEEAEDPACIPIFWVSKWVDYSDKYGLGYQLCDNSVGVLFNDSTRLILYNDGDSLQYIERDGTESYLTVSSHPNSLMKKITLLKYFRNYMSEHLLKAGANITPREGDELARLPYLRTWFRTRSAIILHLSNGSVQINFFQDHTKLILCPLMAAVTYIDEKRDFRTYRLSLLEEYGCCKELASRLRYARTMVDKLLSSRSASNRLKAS

Kd: ~2700 nM
SMILES: O=c1c(O)cccc2cc(O)c(O)c(O)c12 [compound 2, Purpurogallin]
